Test results as given in patent US20110217265A1, “Screening for Inhibitors of HCV Amphipathic Helix (AH) Function” (priority 2008, published 2011).

Tests used:
2a HCV RNA replicon = 2a HCV RNA replicon assay (FL-J6/JFH-5'C19Rluc2AUbi, luciferase); format: cell-based, Hepatitis C Virus genotype 2a; conditions: Hepatitis C virus, read-out: 2a (%) Percent of virus activity remaining in the presence of the compound
From the text: Plasmids. Bart79I, a high-efficiency subgenomic replicon of HCV (28), harbors the neomycin resistance gene (neo) and the HCV nonstructural proteins. The Bart-Luciferase plasmid, Bart79I-luc, was cloned from the Bart791 parent (29) and the pGL3-Basic parent (Promega). In brief, a NotI site was introduced after the 15th amino acid of Core in Bart791 using PCR mutagenesis. The plasmid pcDNA3.1-NS4B, which encodes the Con1 NS4B sequence and was used to study the protein stability of the wild type and mutant NS4Bs, was described previously. To introduce the M2 mutation into the 4BAH2 of plasmids encoding HCV replicons or NS4B, the nucleotide sequence GCG that encodes for alanine at NS4B amino acid position 51 was changed to GAG (encoding for glutamate) and the nucleotide sequence TGG that encodes for tryptophan at amino acid position 55 was changed to GAT (encoding for aspartate) through the use of Quick-ChangeTMXL site-directed mutagenesis kit (Stratagene, La Jolla, Calif.) as described by the manufacturer and confirmed by sequencing. FL-J6/JFH-5′C19Rluc2AUbi, which is a monocistronic, full-length HCV genome that expresses Renilla luciferase (Rluc) and was derived from the previously described infectious genotype 2a HCV genome J6/JFH1.
(§1) Antiviral Assays of Compounds. Subconfluent Huh7.5 cells were trypsinized and collected by centrifugation at 700 g for 5 min. The cells were then washed three times in ice-cold RNasefree PBS buffer (BioWhittaker) and resuspended at 1.5×10^7 cells·ml^−1 in PBS buffer. Wild-type FL-J6/JFH-5′C19Rluc2AUbi and Bart79I-luc RNAs for electroporation were generated by in vitro transcription of XbaI (FL-J6/JFH-5′C19Rluc2AUbi) and ScaI (Bart791-luc)-linearized DNA templates using the T7 MEGAscript kit (Ambion), followed by phenol-chloroform purification and DEPC water suspension, 5 μg of RNA were mixed with 400 μl of washed Huh7.5 cells in a 2-mm-gap cuvette (BTX) and immediately pulsed (0.82 kV (FL-J6/JFH-5′C19Rluc2AUbi) and 0.68 kV (Bart79I-luc), five […] pulses) with a BTX-830 electroporator. After 10 min recovery at 25° C., pulsed cells were diluted into 20 ml of pre-warmed growth medium. Cells from several electroporations were pooled to a common stock and seeded in 96-well plates (17,000-20,000 cells per well). After 24 hr, compounds were added to the cells and media changes were performed daily with fresh compounds. After 72 hr of treatment, cells were incubated for 2 hr at 37° C. in the presence of 10% Alamar Blue reagent (TREK Diagnostic Systems) to assess for cytotoxicity. Plates were then scanned and fluorescence was detected by using a FLEXstation II 384 (Molecular Devices). The signal was normalized relative to untreated samples. Viral RNA replication was determined using Renilla (FL-J6/JFH-5′C19Rluc2AUbi) or firefly (Bart791-luc) luciferase assays, according to the manufacturer's (Promega) directions. The same samples subjected to the viability assay described below were analyzed in this assay. According to the manufacturer protocol, cells were washed with PBS buffer and shaken at room temperature for 15 min in 20 μl of lysis buffer. Reporter assays were performed directly in the wells of the culture plates by injecting 100 μl of the assay substrate into each well. Luminescence was measured over 10 seconds with a 2-second delay using a Berthold LB 96 V luminometer. Signal was normalized relative to untreated samples or samples grown in the presence of the corresponding concentration of DMSO. Experiments were repeated three times, each time with 4 replicates.

hERG = hERG (Homo sapiens, UniProt Q12809); assay: hERG IC50
Chain of hERG (Q12809 whole entry): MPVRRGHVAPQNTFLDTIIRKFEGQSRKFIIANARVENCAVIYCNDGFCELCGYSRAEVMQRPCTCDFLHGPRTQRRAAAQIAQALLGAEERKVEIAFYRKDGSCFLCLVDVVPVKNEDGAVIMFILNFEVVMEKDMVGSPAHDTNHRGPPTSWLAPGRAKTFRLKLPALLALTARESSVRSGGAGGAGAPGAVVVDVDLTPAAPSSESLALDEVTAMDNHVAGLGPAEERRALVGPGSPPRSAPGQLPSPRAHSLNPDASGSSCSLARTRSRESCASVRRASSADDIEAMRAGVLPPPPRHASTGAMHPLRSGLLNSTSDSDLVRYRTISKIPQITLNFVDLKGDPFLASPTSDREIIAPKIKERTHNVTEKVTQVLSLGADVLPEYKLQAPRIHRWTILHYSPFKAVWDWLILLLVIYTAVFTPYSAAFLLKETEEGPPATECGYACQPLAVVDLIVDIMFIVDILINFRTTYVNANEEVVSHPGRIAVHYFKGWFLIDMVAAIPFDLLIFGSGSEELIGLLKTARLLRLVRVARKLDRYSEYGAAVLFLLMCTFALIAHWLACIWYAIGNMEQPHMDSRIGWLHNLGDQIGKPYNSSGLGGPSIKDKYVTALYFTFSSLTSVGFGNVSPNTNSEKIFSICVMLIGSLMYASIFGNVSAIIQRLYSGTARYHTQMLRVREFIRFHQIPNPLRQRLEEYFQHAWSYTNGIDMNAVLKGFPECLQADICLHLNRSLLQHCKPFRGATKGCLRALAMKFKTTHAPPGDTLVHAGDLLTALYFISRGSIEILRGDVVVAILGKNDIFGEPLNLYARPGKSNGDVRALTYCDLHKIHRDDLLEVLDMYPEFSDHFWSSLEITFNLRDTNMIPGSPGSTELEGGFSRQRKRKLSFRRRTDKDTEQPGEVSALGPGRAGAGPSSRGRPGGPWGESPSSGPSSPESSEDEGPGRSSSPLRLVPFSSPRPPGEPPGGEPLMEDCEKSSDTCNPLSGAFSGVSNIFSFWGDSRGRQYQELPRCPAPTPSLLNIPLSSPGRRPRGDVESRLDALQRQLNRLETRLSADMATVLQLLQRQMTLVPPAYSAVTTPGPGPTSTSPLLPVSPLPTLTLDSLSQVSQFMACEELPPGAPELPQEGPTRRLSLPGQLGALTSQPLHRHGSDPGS

Huh7.5 cells = assay: Alamar Blue cell viability assay; format: cell-based, human
Protocol: as §1, with “Plates were then scanned and fluorescence was detected by using a FLEXstation II 384 (Molecular Devices).” left out

HCV 1b RNA replicon = assay: 1b HCV RNA replicon assay, Huh7 cell line with stable luciferase reporter; format: cell-based, Hepatitis C Virus genotype 1b; conditions: Huh7, stable LUC reporter

CC(C)CN(C)c1nc(N)c(C(=O)Nc2cccnc2)nc1Cl.Cl [ID 202, 3-amino-6-chloro-5-(isobutyl(methyl)amino)-N-(pyridin-3-yl)pyrazine-2-carboxamide hydrochloride]
activity at 5 µM (2a HCV RNA replicon): 6%
activity at 10 µM (2a HCV RNA replicon): 4%
IC50 (hERG): 1.5 µM
Cell Viability (%), alamar blue (Huh7.5 cells; 5 μM): 48%
Cell Viability (%), alamar blue (Huh7.5 cells; 10 μM): 43%

CC(C)CN(C)c1nc(N)c(C(=O)NC2CCCNC2)nc1Cl.O=C(O)C(F)(F)F (centres unmarked) [ID 312, 3-amino-6-chloro-5-(isobutyl(methyl)amino)-N-(piperidin-3-yl)pyrazine-2-carboxamide 2,2,2-trifluoroacetate]
IC50 (HCV 1b RNA replicon; Hepatitis C virus, Huh-7): 44 µM
activity at 5 µM (2a HCV RNA replicon): 21%
activity at 10 µM (2a HCV RNA replicon): 9%
IC50 (hERG): 4 µM
Cell Viability (%), alamar blue (Huh7.5 cells; 5 μM): 76%
Cell Viability (%), alamar blue (Huh7.5 cells; 10 μM): 53%

Cc1ccncc1NC(=O)c1nc(Cl)c(N2CCCCC2)nc1N [ID 415, 3-amino-6-chloro-N-(4-methylpyridin-3-yl)-5-(piperidin-1-yl)pyrazine-2-carboxamide 2,2,2-trifluoroacetate]
1b assay IC50 (HCV 1b RNA replicon): inactive
activity at 5 µM (2a HCV RNA replicon): 27%
activity at 10 µM (2a HCV RNA replicon): 10%
Cell Viability (%), alamar blue (Huh7.5 cells; 5 μM): 71%
Cell Viability (%), alamar blue (Huh7.5 cells; 10 μM): 65%

Cc1ccncc1NC(=O)c1nc(Cl)c(NCC(C)C)nc1N [ID 464, 3-amino-6-chloro-5-(isobutylamino)-N-(4-methylpyridin-3-yl)pyrazine-2-carboxamide 2,2,2-trifluoroacetate]
activity at 5 µM (2a HCV RNA replicon): 64%
activity at 10 µM (2a HCV RNA replicon): 44%
IC50 (hERG): > 10 µM
Cell Viability (%), alamar blue (Huh7.5 cells; 5 μM): 95%
Cell Viability (%), alamar blue (Huh7.5 cells; 10 μM): 85%

Cc1ccncc1NC(=O)c1nc(Cl)c(N(C)c2ccccc2)nc1N [ID 465, 3-amino-6-chloro-5-(methyl(phenyl)amino)-N-(4-methylpyridin-3-yl)pyrazine-2-carboxamide 2,2,2-trifluoroacetate]
activity at 5 µM (2a HCV RNA replicon): 60%
activity at 10 µM (2a HCV RNA replicon): 31%
IC50 (hERG): > 10 µM
Cell Viability (%), alamar blue (Huh7.5 cells; 5 μM): 89%
Cell Viability (%), alamar blue (Huh7.5 cells; 10 μM): 78%
